Source: the NIST ThermoML archive (doi:10.1021/acs.jced.6b00169)
Values joined by “and” are separate entries in the source; they are usually repeats but may differ in a detail not shown here. Identical values can stand only once.

Conditions: for vapor or sublimation pressure: Liquid, Closed cell (Static) method; for mass density: Fluid (supercritical or subcritical phases), isochoric method

FC(F)(F)/C=C\C(F)(F)F [(Z)-1,1,1,4,4,4-hexafluorobut-2-ene]
Conditions	vapor or sublimation pressure
323.47 K	182.2 kPa
323.49 K	177.9 kPa
323.5 K	180.6 kPa [middle of 4 runs]
323.51 K	181.2 kPa [middle of 7 runs]
323.52 K	180.2 kPa [middle of 5 runs]
323.53 K	182.1 kPa and 186.3 kPa
333.44 K	247.7 kPa
333.45 K	248.1 kPa
333.46 K	243.8 kPa
333.47 K	247.2 kPa and 243.5 kPa
333.48 K	246.1 kPa and 248.3 kPa
333.49 K	247.6 kPa [middle of 9 runs]
333.5 K	254.8 kPa
343.45 K	331.8 kPa
343.46 K	331.6 kPa
343.48 K	331.2 kPa [middle of 6 runs]
343.49 K	330.6 kPa [middle of 7 runs]
343.5 K	343.2 kPa and 336.4 kPa and 331.7 kPa
353.46 K	435.3 kPa
353.47 K	435.3 kPa
353.48 K	435.2 kPa and 429.9 kPa and 430.2 kPa
353.49 K	435.2 kPa [middle of 5 runs]
353.5 K	434.6 kPa [middle of 4 runs]
363.46 K	562 kPa and 561.7 kPa
363.47 K	555.8 kPa and 556.4 kPa
363.48 K	562.1 kPa [middle of 4 runs]
363.49 K	562.2 kPa [middle of 5 runs]
363.5 K	567.8 kPa and 559.4 kPa
373.45 K	714 kPa
373.47 K	714.4 kPa [middle of 4 runs]
373.48 K	731.7 kPa and 715.2 kPa
373.49 K	713.5 kPa [middle of 5 runs]
373.5 K	716.9 kPa [middle of 4 runs]
383.45 K	895.1 kPa
383.46 K	888.7 kPa
383.47 K	896.6 kPa and 889.9 kPa and 895.9 kPa
383.48 K	896.5 kPa and 895.3 kPa
383.49 K	893.4 kPa [middle of 6 runs]
383.5 K	921.5 kPa and 896.4 kPa
393.47 K	1103.1 kPa and 1109.7 kPa
393.48 K	1112.1 kPa and 1110.3 kPa
393.49 K	1109.6 kPa [middle of 4 runs]
393.5 K	1111.5 kPa [middle of 4 runs]
393.51 K	1113.3 kPa and 1107 kPa
403.41 K	1365.2 kPa
403.47 K	1361.3 kPa
403.48 K	1355 kPa
403.49 K	1364.2 kPa [middle of 4 runs]
403.5 K	1358.5 kPa and 1362.4 kPa
403.51 K	1363.4 kPa and 1358.6 kPa and 1364.3 kPa
413.47 K	1648.2 kPa and 1655.1 kPa
413.49 K	1657.8 kPa [middle of 4 runs]
413.5 K	1651.9 kPa
413.51 K	1658.4 kPa [middle of 4 runs]
423.47 K	1995.7 kPa
423.48 K	2000.2 kPa and 1989.3 kPa
423.49 K	2000.4 kPa and 1992.9 kPa and 1997.8 kPa
423.5 K	1990 kPa and 1999.2 kPa
423.51 K	1999.9 kPa and 1993.1 kPa and 1999.7 kPa
433.46 K	2391.8 kPa
433.47 K	2384.5 kPa
433.49 K	2396.8 kPa and 2389.4 kPa and 2393.9 kPa
433.5 K	2385.2 kPa and 2388.6 kPa
433.51 K	2396.2 kPa
433.52 K	2395.9 kPa
443.45 K	2854.5 kPa
443.47 K	2837.9 kPa
443.5 K	2847.4 kPa and 2860.1 kPa
443.51 K	2859.8 kPa and 2850.8 kPa

Conditions	mass density [kg/m3]
333.47 K, 5013.6 kPa	1294.9
333.49 K, 4294.8 kPa	1291.4
343.5 K, 9927.3 kPa	1290.8
353.5 K, 1179.2 kPa	1214.2
363.49 K, 3108.6 kPa	1196.7
363.5 K, 5627.6 kPa	1213.6
373.49 K, 7319.3 kPa	1196.2
383.48 K, 2373.8 kPa	1121.1
393.48 K, 5697.9 kPa	1120.5
393.51 K, 1151.8 kPa	1038.9
403.48 K, 1382.1 kPa	964.9
403.49 K, 1273.1 kPa	87.8
403.5 K, 9039.9 kPa	1120
403.51 K, 2538.6 kPa	1038.4
413.48 K, 1705.4 kPa	964.4
413.49 K, 1667.6 kPa	884.8
413.5 K, 1339.2 kPa	87.8
413.51 K, 5100.3 kPa	1037.9
423.48 K, 3720.9 kPa	964
423.49 K, 2049.1 kPa	884.4
423.5 K, 1403.2 kPa	87.7
423.51 K, 7690 kPa	1037.4
433.47 K, 2440.9 kPa	790.6
433.49 K, 1466 kPa	87.7
433.49 K, 3342.9 kPa	883.9
433.49 K, 5765 kPa	963.5
433.5 K, 2159.2 kPa	167.2
443.48 K, 2727.2 kPa	261.3
443.48 K, 3403.1 kPa	790.2
443.49 K, 2855.8 kPa	451.8
443.49 K, 2856.2 kPa	410.2
443.49 K, 2906.1 kPa	659.8
443.49 K, 4930.5 kPa	883.5
443.5 K, 1526.7 kPa	87.6
443.5 K, 2301.4 kPa	167.1
443.5 K, 2856.5 kPa	556.1
443.5 K, 2857 kPa	496.8
443.5 K, 3041.4 kPa	734.7
443.5 K, 7837.5 kPa	963.1
443.51 K, 2855.3 kPa	532.1
443.51 K, 2860.2 kPa	589.2
444.48 K, 2904 kPa	410.2
444.48 K, 2905.8 kPa	451.8
444.49 K, 2907.9 kPa	496.8
444.49 K, 2909.6 kPa	556.1
444.5 K, 2907.5 kPa	532.1
444.5 K, 2918.3 kPa	589.2
445.48 K, 2948.7 kPa	410.1
445.48 K, 2955 kPa	451.8
445.49 K, 2960.5 kPa	496.8
445.49 K, 2967.6 kPa	556.1
445.49 K, 2979 kPa	589.2
445.5 K, 2963.5 kPa	532.1
446.47 K, 2992.8 kPa	410.1
446.47 K, 3039.9 kPa	589.2
446.48 K, 3003.8 kPa	451.8
446.49 K, 3019.2 kPa	532.1
446.49 K, 3024.7 kPa	556
446.5 K, 3013.3 kPa	496.8
447.47 K, 3036.6 kPa	410.1
447.49 K, 3052.3 kPa	451.8
447.49 K, 3075.5 kPa	532
447.49 K, 3102.7 kPa	589.1
447.5 K, 3083 kPa	556
447.51 K, 3065.9 kPa	496.8
448.47 K, 3080.1 kPa	410.1
448.48 K, 3099.7 kPa	451.7
448.49 K, 3131.1 kPa	532
448.49 K, 3165.1 kPa	589.1
448.5 K, 3117.9 kPa	496.7
448.5 K, 3140.9 kPa	556
449.46 K, 3123.1 kPa	410.1
449.48 K, 3147.7 kPa	451.7
449.49 K, 3187.7 kPa	532
449.5 K, 3170.6 kPa	496.7
449.5 K, 3200.1 kPa	556
449.5 K, 3229.7 kPa	589.1
450.46 K, 3166.1 kPa	410
450.48 K, 3195.5 kPa	451.7
450.5 K, 3223.3 kPa	496.7
450.5 K, 3259.2 kPa	555.9
450.5 K, 3293.6 kPa	589
450.51 K, 3244.9 kPa	532
451.47 K, 3209.5 kPa	410
451.48 K, 3243 kPa	451.7
451.49 K, 3357.7 kPa	589
451.5 K, 3275.9 kPa	496.7
451.5 K, 3318.3 kPa	555.9
451.51 K, 3300.8 kPa	531.9
452.47 K, 3252.2 kPa	410
452.48 K, 3290.8 kPa	451.7
452.49 K, 3328.2 kPa	496.6
452.49 K, 3378.2 kPa	555.9
452.49 K, 3422.9 kPa	589
452.5 K, 3358.3 kPa	531.9
453.47 K, 3294.8 kPa	410
453.48 K, 3200.2 kPa	348.3
453.49 K, 3338.4 kPa	451.6
453.49 K, 3381.2 kPa	496.6
453.49 K, 4021.4 kPa	734.4
453.49 K, 9923.8 kPa	962.6
453.5 K, 1586.1 kPa	87.6
453.5 K, 2978.8 kPa	261.1
453.5 K, 3415.5 kPa	531.9
453.5 K, 3438.5 kPa	555.9
453.5 K, 3477.4 kPa	589
453.5 K, 3489.4 kPa	589
453.5 K, 3654.8 kPa	659.5
453.5 K, 4584 kPa	789.8
453.5 K, 6552.2 kPa	883.1
453.51 K, 2439 kPa	167
453.51 K, 3355.4 kPa	473.8
453.51 K, 3423.1 kPa	534.1
453.52 K, 3308.4 kPa	416.3
463.47 K, 3811.6 kPa	451.7
463.48 K, 3548.1 kPa	348.1
463.49 K, 5796.3 kPa	789.4
463.5 K, 1644.5 kPa	87.5
463.5 K, 3221.4 kPa	261
463.5 K, 4145.4 kPa	588.7
463.5 K, 4465.6 kPa	659.2
463.5 K, 8195.5 kPa	882.7
463.51 K, 2573 kPa	166.9
463.51 K, 3856.7 kPa	473.6
463.51 K, 4003.3 kPa	533.8
463.52 K, 3741 kPa	416.1
463.84 K, 5039.9 kPa	734
473.46 K, 4282.9 kPa	451.5
473.49 K, 3889.2 kPa	347.9
473.49 K, 5297.9 kPa	658.9
473.49 K, 6084.9 kPa	733.7
473.49 K, 7031.2 kPa	789.1
473.5 K, 1702.6 kPa	87.5
473.5 K, 3458.3 kPa	260.9
473.5 K, 4828.4 kPa	588.4
473.5 K, 9855 kPa	882.3
473.51 K, 2705 kPa	166.8
473.51 K, 4169.1 kPa	416
473.51 K, 4592.6 kPa	533.6
473.52 K, 4360 kPa	473.3
483.45 K, 4753 kPa	451.3
483.48 K, 8280.1 kPa	788.7
483.49 K, 4225.7 kPa	347.8
483.49 K, 6143.2 kPa	658.6
483.5 K, 1760.4 kPa	87.5
483.5 K, 3690.6 kPa	260.8
483.5 K, 4863.2 kPa	473.1
483.5 K, 5186.3 kPa	533.3
483.5 K, 5522.5 kPa	588.1
483.51 K, 2834.3 kPa	166.8
483.51 K, 4596.7 kPa	415.8
483.51 K, 7145.4 kPa	733.3
493.49 K, 4559.3 kPa	347.6
493.5 K, 3920 kPa	260.6
493.5 K, 6223.9 kPa	587.8
493.51 K, 1817.2 kPa	87.4
493.51 K, 2962 kPa	166.7
493.51 K, 5368 kPa	472.9
503.5 K, 4890.2 kPa	347.4
503.51 K, 6930.9 kPa	587.6
